Source: paper PMC5962403 (SLAS discovery : advancing life sciences R & D, 2018)

Key:
CBX7 ChD = molecular target: T1, CBX7 ChD (Homo sapiens, UniProt O95931); type: binding; conditions: control ligands on 24 DNA constructs each, relative to nonligand
T1 sequence (O95931 11-69 limits assumed): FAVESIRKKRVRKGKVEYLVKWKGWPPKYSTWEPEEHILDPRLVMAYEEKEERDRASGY

CBX7 = conditions: cited from earlier work

Substance | enrichment in model selection against CBX7 (in words) (CBX7 ChD) | selectivity to CBX7 over other CBX proteins and ChDs (CBX7) | Kd (CBX7; reported Kd for CBX7) [µM]
Bz-A-I-Kme3-S-140-mers [low-affinity ligand] | poorly enriched |  | 
Ac-F-A-I-Kme3-S-140-mers [medium-affinity ligand] | moderately enriched |  | 
UNC3866 |  | 6- to 18 fold | 0.097
